The term Emax denotes the greatest response seen or fitted, relative to the assay's reference.

For the assay, the target named is T1, human β3 adrenergic receptor (Homo sapiens, UniProt P13945).
T1 construct: expressed in transfected cells; host or cells: DXB-11 Chinese hamster ovary (CHO) cell line, stably transfected (phd expression vector)
As to the kind of experiment: whole cell receptor coupled c-AMP assay, human β3 receptor in CHO cells (EC50, Emax relative to isoproterenol). Type of assay: cell-based. The source says: The genes encoding the human β1-adrenergic receptor (Frielle et al., Proc. Natl. Acad. Sci., 84:7920-7924, 1987), the human β2-adrenergic receptor (Kobika et al., Proc. Natl. Acad. Sci., 84:46-50, 1987, Emorine et al., Proc. Natl. Acad. Sci., 84:6995-6999, 1987) and the human β3 adrenergic receptor (Granneman et al., Molecular Pharmacology, 44(2):264-70, 1993) are individually subcloned into a phd expression vector (Grinnell et al., Bio/Technology, 5:1189-1192, 1987) and transfected into the DXB-11 Chinese hamster ovary (CHO) cell line by calcium phosphate precipitation methodology. The stably transfected cells are grown to 95% confluency in 95% Dulbecco's modified Eagles Medium (DMEM), 5% fetal bovine serum and 0.01% proline. Media is removed and the cells are washed with phosphate buffered (pH 7.4) saline (without magnesium and calcium). Cells are then lifted using an enzyme free cell dissociation solution (Specialty Media, Lavallette, N.J.) and pelleted by centrifugation.
Cells from each of the above cell lines are resuspended and added (20,000/well) to a 96-well plate. Cells are incubated at 37° C. with representative compounds of the invention for 20 minutes in buffer (Hank's balanced salt solution, 10 mM HEPES, 0.1% BSA, 1 mM L-ascorbic acid, 0.2% dimethyl sulfoxide, 1 mm 3-isobutyl-1-methylxanthine, pH 7.4). After halting the incubation with quench buffer (50 mM Na Acetate, 0.25% Triton X-100, pH 5.8), the c-AMP level is quantified by scintillation proximity assay (SPA) using a modification of the commercially available c-AMP kit (Amersham, Arlington Heights, Ill.) with rabbit anti-cAMP antibody (ICN Biomedicals, Aurora, Ohio) for the kit.
Sigmoidal dose response curves, from the whole cell receptor coupled c-AMP assay are fit to a four parameter logistic equation using non linear regression: y=(a−d)/(1+(Dose/c)^b)+d where a and d are responses at zero and maximal dose, b is the slope factor and c is the EC50 as previously described (DeLean et al., Am. J. Physiol., 235, E97-E102, 1978). EC50 is assessed as the concentration producing 50% of the maximum response to each agonist.
Isoproterenol is accepted in the art as a non-selective β3 agonist and is widely used as a comparator in evaluating the activity of compounds. See Trends in Pharm. Sci., 15:3, 1994. The % intrinsic activity (Emax) of representative compounds of the invention is assessed relative to isoproterenol by the compound's maximal response divided by the isoproterenol maximal response times 100.

The mark [1] stands for this setting: Emax ± standard error of the mean, average of at least 3 runs except where n = 1, compound tested in the isolated form listed.
[2] abbreviates: % intrinsic activity relative to isoproterenol maximal response, average of at least 3 runs, c-AMP in transfected CHO cells.

T1 sequence (P13945 whole entry): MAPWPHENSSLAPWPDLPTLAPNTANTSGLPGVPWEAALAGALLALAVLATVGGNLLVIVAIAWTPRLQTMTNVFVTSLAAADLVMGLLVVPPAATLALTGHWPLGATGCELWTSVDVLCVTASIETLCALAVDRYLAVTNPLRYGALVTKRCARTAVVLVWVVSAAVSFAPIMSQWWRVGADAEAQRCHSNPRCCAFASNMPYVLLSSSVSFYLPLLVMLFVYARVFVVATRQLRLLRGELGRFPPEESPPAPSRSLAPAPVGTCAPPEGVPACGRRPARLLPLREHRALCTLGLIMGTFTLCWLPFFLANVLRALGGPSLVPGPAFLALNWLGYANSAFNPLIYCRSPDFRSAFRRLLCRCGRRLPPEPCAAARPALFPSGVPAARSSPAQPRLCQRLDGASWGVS

As for `CC(C)(Cc1ccc(Oc2ccc(Cl)nn2)cc1)NC[C@H](O)COc1ccccc1-c1nccs1.O=C(O)C(F)(F)F` [Example 209], the “Emax (%) ± SEM” value under setting [1] stood at 88.3 ± 8.0%.

Take `CC(C)(Cc1ccc(Oc2ncccc2C#N)cc1)NC[C@H](O)COc1ccccc1-c1ccncc1` [Example 375]: the “Emax (%) ± SEM” value under setting [2] amounted to 35.1 ± 7.3%.

Turning to `CC(C)(Cc1ccc(Oc2ccc(C(N)=O)cc2)cc1)NC[C@H](O)COc1ccccc1-c1cccs1.O=C(O)C(F)(F)F` [Example 123], the “Emax (%) ± SEM” value under setting [1] is given as 73.6 ± 8.2%.

As for `Cn1nccc1-c1ccccc1OC[C@@H](O)CNC(C)(C)Cc1ccc(Oc2ccc(C#N)cn2)cc1` [Example 3], the “Emax (%) ± SEM” value under setting [1] is recorded as <10%. `CC(C)(Cc1ccc(Oc2ccc(C#N)nc2)cc1)NC[C@H](O)COc1ccccc1-c1nccs1.O=C(O)C(F)(F)F` [Example 145]: the “Emax (%) ± SEM” value under setting [1] was determined as 44.6 ± 6.2%. For `CC(C)(Cc1ccc(Oc2ccc(C#N)cn2)cc1)NC[C@H](O)COc1ccccc1-c1ccncc1` [Example 373], under setting [2], the “Emax (%) ± SEM” value stood at 29.0 ± 6.8%.

For `CC(C)(Cc1ccc(Oc2ccc(C(N)=O)s2)cc1)NC[C@H](O)COc1ccccc1-c1cscn1.Cl` [Example 259], the “Emax (%) ± SEM” value under setting [1] stood at 54.1 ± 3.9%. Regarding `CC(C)(Cc1ccc(Oc2ccc(S(C)(=O)=O)cc2F)cc1)NC[C@H](O)COc1ccccc1-c1cscn1.Cl` [Example 250], the “Emax (%) ± SEM” value under setting [1] amounted to 31.6 ± 3.1%. For `CC(C)(Cc1ccc(Oc2ncccc2C(N)=O)cc1)NC[C@H](O)COc1ccccc1-c1cccnc1` [Example 391], under setting [2], the “Emax (%) ± SEM” value turned out to be 22.5 ± 1.5%.

As for `CC(C)(Cc1ccc(Oc2ncccn2)cc1)NC[C@H](O)COc1ccccc1-c1cccs1.O=C(O)C(F)(F)F` [Example 150], the “Emax (%) ± SEM” value under setting [1] came to 69.8 ± 6.0%.

With `CC(C)(Cc1ccc(Oc2cccnc2C(N)=O)cc1)NC[C@H](O)COc1ccccc1-c1nccs1.O=C(O)C(F)(F)F` [Example 197], the “Emax (%) ± SEM” value under setting [1] was 67.7 ± 2.7%. In the case of `CC(C)(Cc1ccc(Oc2ncccc2C(N)=O)cc1)NC[C@H](O)COc1ccccc1N1CCCC1` [Example 84], the “Emax (%) ± SEM” value under setting [1] was 72.1 ± 6.2%. As to `CC(C)(Cc1ccc(Oc2ncccc2C#N)cc1)NC[C@H](O)COc1ccccc1-c1ccnc(N)n1` [Example 61], the “Emax (%) ± SEM” value under setting [1] stood at 32.8 ± 4.3%. In the case of `CC(C)(Cc1ccc(Oc2cccnc2C#N)cc1)NC[C@H](O)COc1ccccc1-c1ccsc1.Cl` [Example 421], the “Emax (%) ± SEM” value under setting [2] turned out to be 53.4 ± 6.9%. Take `Cn1nccc1-c1ccccc1OC[C@@H](O)CNC(C)(C)Cc1ccc(Oc2ccc(S(C)(=O)=O)cc2)cc1` [Example 127]: the “Emax (%) ± SEM” value under setting [1] is recorded as <10%. In the case of `CC(C)(Cc1ccc(Oc2cccnc2C#N)cc1)NC[C@H](O)COc1ccccc1-c1cccs1.O=C(O)C(F)(F)F` [Example 143], under setting [1], the “Emax (%) ± SEM” value was determined as 67.2 ± 4.8%. On to `CC(C)(Cc1ccc(Oc2ncccc2C#N)cc1)NC[C@H](O)COc1ccccc1-c1cnco1.Cl` [Example 65], for which, under setting [1], the “Emax (%) ± SEM” value is 55.9 ± 5.8%. The same measure, in the same setting: the figure for `Cn1ccc(-c2ccccc2OC[C@@H](O)CNC(C)(C)Cc2ccc(Oc3ncccc3C#N)cc2)n1` [Example 4] is 55.0 ± 1.3%; for `CC(C)(Cc1ccc(Oc2ncccc2C#N)cc1)NC[C@H](O)COc1ccccc1-c1cscn1.Cl` [Example 239] it is 49.8 ± 4.5%; for `CC(C)(Cc1ccc(Oc2ccc(C(N)=O)cn2)cc1)NC[C@H](O)COc1ccccc1-c1nnco1` [Example 30] it is 51.7 ± 2.7%. Turning to `CC(C)(Cc1ccc(Oc2ncccc2C(N)=O)cc1)NC[C@H](O)COc1ccccc1-c1ccco1.Cl` [Example 420], the “Emax (%) ± SEM” value under setting [2] is 78.9 ± 2.3%.

For the molecule `CC(C)(Cc1ccc(Oc2ncccc2C(N)=O)cc1)NC[C@H](O)COc1ccccc1-c1ccc(C(N)=O)s1` [Example 450], the Emax (% intrinsic activity relative to isoproterenol maximal response, SEM in brackets, c-AMP in transfected CHO cells) stood at 67.4%.

For the molecule `CC(C)(Cc1ccc(Oc2ncccc2C(N)=O)cc1)NC[C@H](O)COc1ccccc1-c1ccns1.O=C(O)C(=O)O` [Example 96], the “Emax (%) ± SEM” value under setting [1] is recorded as 78.1 ± 6.6%.

As for `CC(C)(Cc1ccc(Oc2ncccc2C(N)=O)cc1)NC[C@H](O)COc1ccccc1-n1cccn1.Cl` [Example 102], under setting [1], the “Emax (%) ± SEM” value turned out to be 46.1 ± 4.5%. Turning to `CC(C)(Cc1ccc(Oc2cccc(Cl)n2)cc1)NC[C@H](O)COc1ccccc1-c1cccs1.O=C(O)C(F)(F)F` [Example 175], the “Emax (%) ± SEM” value under setting [1] came out at 67.4 ± 3.9%. With `CC(C)(Cc1ccc(Oc2ncccc2C#N)cc1)NC[C@H](O)COc1cccc(F)c1-c1cccs1.O=C(O)C(F)(F)F` [Example 64], the “Emax (%) ± SEM” value under setting [1] is 30.5 ± 6.8%. Take `CC(C)(Cc1ccc(Oc2ccc(C(N)=O)cc2)cc1)NC[C@H](O)COc1ccccc1-c1ccno1.O=C(O)C(F)(F)F` [Example 125]: the “Emax (%) ± SEM” value under setting [1] was 40.3 ± 7.9%. In the case of `CC(C)(Cc1ccc(Oc2ccc(C#N)cn2)cc1)NC[C@H](O)COc1ccccc1-c1cnco1.Cl` [Example 13], under setting [1], the “Emax (%) ± SEM” value was determined as 54.8 ± 1.7%.

With `COC(=O)c1ccc(Oc2ccc(CC(C)(C)NC[C@H](O)COc3ccccc3-c3nccs3)cc2)nc1` [Example 116], the “Emax (%) ± SEM” value under setting [1] was 58.2 ± 7.2%. `CC(C)(Cc1ccc(Oc2ccc(C(N)=O)cn2)cc1)NC[C@H](O)COc1ccccc1-n1cccn1.Cl` [Example 47]: the “Emax (%) ± SEM” value under setting [1] came to 35.5 ± 5.5%. On to `CC(C)(Cc1ccc(Oc2ncccc2C(N)=O)cc1)NC[C@H](O)COc1ccccc1-c1ccno1.Cl` [Example 73], for which the “Emax (%) ± SEM” value under setting [1] turned out to be 69.5 ± 0.1%. For `CC(C)(Cc1ccc(Oc2ccncc2)cc1)NC[C@H](O)COc1ccccc1-c1nccs1.O=C(O)C(F)(F)F` [Example 203], under setting [1], the “Emax (%) ± SEM” value turned out to be 57.8 ± 3.1%.

As for `CC(C)(Cc1ccc(Oc2ncccc2C(N)=O)cc1)NC[C@H](O)COc1ccccc1-c1ccc(Cl)s1.Cl` [Example 418], the “Emax (%) ± SEM” value under setting [2] was found to be 74.4 ± 6.5%. Take `CC(C)(Cc1ccc(-c2ccccc2C#N)cc1)NC[C@H](O)COc1ccccc1-c1ccno1.O=C(O)C(=O)O` [Example 289]: under setting [1], the “Emax (%) ± SEM” value amounted to 37.4 ± 7.2%. Consider `CC(C)(Cc1ccc(Oc2ncccc2C(N)=O)cc1)NC[C@H](O)COc1ccccc1-c1cc2ccccc2o1` [Example 372], for which the “Emax (%) ± SEM” value under setting [2] was 56.3 ± 4.8%. For `CC(C)(Cc1ccc(Oc2ccc(C#N)cn2)cc1)NC[C@H](O)COc1ccccc1-c1ccco1.Cl` [Example 408], the “Emax (%) ± SEM” value under setting [2] was found to be 74.0 ± 6.5%. In the case of `COC(=O)c1ccc(Oc2ccc(CC(C)(C)NC[C@H](O)COc3ccccc3-c3ccno3)cc2)c(Cl)c1` [Example 141], under setting [1], the “Emax (%) ± SEM” value is 48.3 ± 9.9%. On the same count and under the same terms, the figure for `CC(C)(Cc1ccc(Oc2ccccc2C#N)cc1)NC[C@H](O)COc1ccc(F)cc1-c1cccs1.O=C(O)C(F)(F)F` [Example 214] is 42.4 ± 9.4%; for `CC(C)(Cc1ccc(Oc2ncccc2C(N)=O)cc1)NC[C@H](O)COc1ccccc1-c1ccncn1` [Example 76] it is 48.8 ± 5.5%; for `CC(C)(Cc1ccc(Oc2ccc(C(N)=O)cn2)cc1)NC[C@H](O)COc1cccc(-c2ccnc(N)n2)c1` [Example 38] it is 20.5 n = 1%. With `CC(C)(Cc1ccc(Oc2ncccc2C(N)=O)cc1)NC[C@H](O)COc1cccc(C2=NCCN2)c1` [Example 88], the “Emax (%) ± SEM” value under setting [1] is <10%. On to `CC(C)(Cc1ccc(Oc2ccc(S(C)(=O)=O)cc2)cc1)NC[C@H](O)COc1ccccc1-n1cccc1.Cl` [Example 265], for which the “Emax (%) ± SEM” value under setting [1] was determined as 42.7 ± 9.4%. In the case of `COC(=O)c1ccc(Oc2ccc(CC(C)(C)NC[C@H](O)COc3ccccc3-c3ccnn3C)cc2)c(Cl)c1` [Example 137], under setting [1], the “Emax (%) ± SEM” value is given as <10%. For the molecule `CC(C)(Cc1ccc(Oc2ncccc2C(N)=O)cc1)NC[C@H](O)COc1ccccc1-c1nc2ccccc2s1` [Example 82], the “Emax (%) ± SEM” value under setting [1] is 45.9 ± 10.7%. Turning to `CC(C)(Cc1ccc(Oc2ncccc2C#N)cc1)NC[C@H](O)COc1c(F)cccc1-c1ccco1.Cl` [Example 440], the “Emax (%) ± SEM” value under setting [2] worked out at 73.4 ± 4.4%.

In the case of `CC(C)(Cc1ccc(Oc2ncccc2C(N)=O)cc1)NC[C@H](O)COc1ccccc1N1CCNC1=O` [Example 103], the “Emax (%) ± SEM” value under setting [1] is 21.1 ± 0.1%. Still for that read-out and setting: the result for `COC(=O)c1ccc(Oc2ccc(CC(C)(C)NC[C@H](O)COc3ccccc3-c3ccnn3C)cc2)nc1` [Example 113] reads 20.7 n = 1%; that for `CC(C)(Cc1ccc(Oc2ccc(C(N)=O)cn2)cc1)NC[C@H](O)COc1ccccc1-c1ncco1` [Example 45], 66.5 ± 3.9%.

These data come from patent US6730792B2, “β3 adrenergic agonists” (Eli Lilly and Company, priority 2000, dated 2004).
